Measured values reported in US20080058398A1, “Compounds” (priority 2006, published 2008).
Counter-ions that a name gives are not always drawn. One block for each compound: values may come before it.

Legend:
[1] = target: D3 (Homo sapiens, UniProt P35462); assay: GTPγS scintillation proximity assay (GTPγS-SPA), antagonist format; assay type: biochemical; settings: higher than Enantiomer 1
Protocol: Functional potency and intrinsic activity of compounds of this invention can be measured by the following GTPγS scintillation proximity assay (GTPγS-SPA). Cells used in the study are Chinese Hamster Ovary (CHO) Cells.
Cell membranes are prepared as follows. Cell pellets are resuspended in 10 volumes of 50 mM HEPES, 1 mM EDTA pH 7.4, using KOH. On the day the following proteases are added to the buffer just prior to giving the homogenisation buffer.
25 ug/mL Bacitracin (Sigma B0125)−1000×stock=25 mg/mL in buffer
The cells are homogenised by 2×15 second bursts in a 1 litre Glass Waring blender in a class two biohazard cabinet. The resulting suspension is spun at 500 g for 20 mins (Beckman T21 centrifuge: 1550 rpm). The supernatant is withdrawn with a 25 mL pipette, aliquotted into pre-chilled centrifuge tubes and spun at 48,000 g to pellet membrane fragments (Beckman T1270: 23,000 rpm for 30 mins). The final 48,000 g pellet is resuspended in Homogenisation Buffer, (4× the volume of the original cell pellet). […] Protein content in the membrane preparations is evaluated with the Bradford protein assay.
The final top concentration of test drug is 3 uM in the assay and 11 points serial dilution curves 1:4 in 100% DMSO are carried out using a Biomek FX. […] Assay plates are counted on a Viewlux, 613/55 filter, for 5 min., between 2-6 hours after the final addition. […]

[2] = target: D2 receptors (Homo sapiens, UniProt P14416); assay: affinity for dopamine receptors (D2); assay type: binding
Sequence of D2 receptors (P14416 whole entry): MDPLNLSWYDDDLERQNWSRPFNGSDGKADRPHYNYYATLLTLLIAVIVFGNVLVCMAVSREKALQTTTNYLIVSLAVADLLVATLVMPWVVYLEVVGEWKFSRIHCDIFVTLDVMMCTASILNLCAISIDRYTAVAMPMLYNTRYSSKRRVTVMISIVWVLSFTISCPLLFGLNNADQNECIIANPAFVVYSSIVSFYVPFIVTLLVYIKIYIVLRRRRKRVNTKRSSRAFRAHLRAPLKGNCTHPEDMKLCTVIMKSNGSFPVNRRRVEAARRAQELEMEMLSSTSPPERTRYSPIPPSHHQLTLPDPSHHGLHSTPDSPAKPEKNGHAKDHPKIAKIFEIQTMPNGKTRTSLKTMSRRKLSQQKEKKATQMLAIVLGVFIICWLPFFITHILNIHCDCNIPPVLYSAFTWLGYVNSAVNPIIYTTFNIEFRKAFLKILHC

[3] = target: dopamine D3 receptors (Homo sapiens, UniProt P35462); assay: affinity for dopamine receptors (D3); assay type: binding
Sequence of dopamine D3 receptors (P35462 whole entry): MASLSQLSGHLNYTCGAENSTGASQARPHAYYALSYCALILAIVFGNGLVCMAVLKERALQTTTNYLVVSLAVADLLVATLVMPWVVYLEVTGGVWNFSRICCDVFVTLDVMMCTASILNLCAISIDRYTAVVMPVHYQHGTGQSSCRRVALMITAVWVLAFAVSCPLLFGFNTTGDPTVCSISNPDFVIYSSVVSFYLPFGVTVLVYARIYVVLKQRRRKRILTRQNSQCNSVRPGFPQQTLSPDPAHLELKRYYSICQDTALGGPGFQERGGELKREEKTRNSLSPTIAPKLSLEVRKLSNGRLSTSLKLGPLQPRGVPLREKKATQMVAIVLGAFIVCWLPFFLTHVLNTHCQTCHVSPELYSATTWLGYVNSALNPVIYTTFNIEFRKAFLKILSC

[4] = solid state accelerated stability (appearance, assay and total impurities by HPLC)
Protocol: The solid state accelerated condition adopted were 40° C./75% RH (Relative Humidity) closed and exposed, and 50° C./amb RH (Ambient Relative Humidity) closed under air atmosphere.
At one month time point the following samples have been analysed for the appearance, assay and total impurities.
Assay and total impurities tests have been performed by HPLC with fast gradient method.

Sequence of D3 (P35462 whole entry): as above

SMILES: Cc1ncoc1-c1nnc(SCCCN2C[C@@H]3C[C@]3(c3ccc(C(F)(F)F)cc3F)C2)n1C (single isomer, unassigned) [Enantiomer 2]
- fpKi (D3) difference [1]: > 1 log-unit
- affinity for dopamine D2 receptors [2]: exhibit affinity
- affinity for dopamine D3 receptors [3]: exhibit affinity
- affinity for dopamine D3 versus D2 receptors ([3]; D3 compared with D2): greater affinity for dopamine D3 than for D2 receptors

SMILES: Cc1ncoc1-c1nnc(SCCCN2C[C@@H]3C[C@]3(c3ccc(C(F)(F)F)cc3F)C2)n1C.O=C(O)C(O)C(O)C(=O)O [Example 1, (1S,5R)-1-[2-fluoro-4-(trifluoromethyl)phenyl]-3-(3-{[4-methyl-5-(4-methyl-1,3-oxazol-5-yl)-4H-1,2,4-triazol-3-yl]thio}propyl)-3-azabicyclo[3.1.0]hexane (2R,3R) tartrate]
- stability in comparison with the hydrochloride salt [4]: improved stability
- total impurities ([4]; after 1 month, at any stability condition tested): around 0.5 % a/a

SMILES: Cc1ncoc1-c1nnc(SCCCN2C[C@@H]3C[C@]3(c3ccc(C(F)(F)F)cc3F)C2)n1C [Preparation 7, (1S,5R)-1-[2-Fluoro-4-(trifluoromethyl)phenyl]-3-(3-{[4-methyl-5-(4-methyl-1,3-oxazol-5-yl)-4H-1,2,4-triazol-3-yl]thio}propyl)-3-azabicyclo[3.1.0]hexane hydrochloride]
- change of total impurities ([4]; at any investigated stability condition): increase of total impurities

- stability in comparison with the hydrochloride salt [4]: improved stability
SMILES: Cc1ncoc1-c1nnc(SCCCN2CC3CC3(c3ccc(C(F)(F)F)cc3F)C2)n1C (centres unmarked) [the tartrate, 1-[2-fluoro-4-(trifluoromethyl)phenyl]-3-(3-{[4-methyl-5-(4-methyl-1,3-oxazol-5-yl)-4H-1,2,4-triazol-3-yl]thio}propyl)-3-azabicyclo[3.1.0]hexane]
